Assay results as given in PubChem BioAssay AID1963431 (Molecular Pharmacology Branch, DTP, NCI, 2024).
Where “and” joins values, the source holds several entries; their conditions need not be identical. Identical values can stand only once.

Tested on: Rh18 complex spheroid viability, percent test/control
Test: Anticancer human tumor Rh18 cell line growth inhibition [Asc];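 further: spheroids exposed to compound for 7 days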;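 on viability, T/C: 100% = DMSO vehicle control wells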
Conditions: for viability, T/C: stronger effect = lower value
Experimental: Multicellular complex tumor spheroid response to apoptosis pathway targeting inhibitors Alrizomadlin, Pelcitoclax, and Dasminapant in combination with a variety of drugs and investigational agents in selected tumor cell lines
The MDM2 inhibitor alrizomadlin, the Bcl-2/Bcl-xL inhibitor pelcitoclax, and the IAPs inhibitor dasminapant were evaluated both individually and in combination with standard of care and investigational anticancer small molecules within a complex spheroid model of solid tumors. . Complex spheroids include a stromal component modeled by human endothelial cells (HUVEC) and fibroblasts modeled by human mesenchymal stem cells (MSCs). The concentration ranges selected for each drug and investigational agent were based upon clinically achievable concentrations if the clinical Cmax of the agent was known.
Compounds. The drugs and investigational agents: alrizomadlin (APG-115; NSC831270), pelcitoclax (APG-1252; NSC835773), dasminapant (APG-1387;NSC834197), TAK-243 (NSC785004), copanlisib (NSC809693), olaparib (NSC753686), talazoparib (NSC767125), cobimetinib (NSC 768068), eltanexor (KPT-8602, NSC 794443), abemaciclib (NSC 768073), sotorasib (NSC818433), adagrasib (NSC 831453), MRTX-1133 (NSC 836407), Iadademestat (ORY1001, NSC 806812), and RMC-4630 (NSC839698), were obtained from the NCI Developmental Therapeutics Program Chemical Repository. The FDA-approved anticancer drug set is available from the Developmental Therapeutics Program at https://dtp.cancer.gov/organization/dscb/obtaining/available plates.htm. […] The stock solutions were prepared in dimethyl sulfoxide (DMSO, Sigma-Aldrich, St. Louis, MO, cat. D2650) at 800-fold the tested concentration and stored at -70 degrees C prior to their use. All drugs and investigational agents were tested over a range starting from a high concentration at or near the clinical Cmax and decreasing in half-log increments. If the clinical Cmax for an agent had not been determined, the highest concentration tested was 10 microM.
The patient-derived cancer (PDC) cell lines include five colon adenocarcinomas: 186277-243-T-J2-PDC, 616215-338-R-J1-PDC, 439559-082-T-J2-PDC, 463943-066-T-J2-PDC, and 519858-162-T-J1-PDC; three pancreatic carcinomas: 323965-272-R-J2-PDC, 521955-158-R6-J3-PDC, and 521955-158-R2-J5-PDC; two uterine sarcomas: 327498-152-R-J2-PDC and 993429-296-R-J1-PDC; two rhabdomyosarcomas: 755483-174-R-J1-PDC and 772245-204-R-J1-PDC; two soft tissue sarcomas: 126254-015-R-J1-PDC and 494315-158-R-J1-PDC; two malignant fibrous histiocytomas: 317291-083-R-J1-PDC and 596521-263-R-J1-PDC; two breast carcinomas: 171881-019-R-J1-PDC and 885512-296-R-J2-PDC; and one ovarian carcinoma: 6556581-035-R-J-PDC were obtained from the NCI PDMR, (https://pdmr.cancer.gov). The established cell lines HSSY-2 synovial sarcoma (RRID:CVCL 8719), SYO-1 synovial sarcoma (RRID:CVCL_7146), MPNST malignant peripheral neural sheath tumor were obtained from the Sloan Kettering Institute. The following established cell lines were purchased from the American Type Culture Collection (ATCC, Manassas, VA), Sor the received from the NCI repository:, PANC-1 pancreatic carcinoma (CRL-1469, RRID:CVCL_0480), OVCAR-5 ovarian carcinoma (RRID:CVCL_1628), OVCAR-8 ovarian carcinoma (RRID:CVCL_1629), , MCF-7 breast carcinoma (CRL-12584, RRID:CVCL_0031), MDA-MB-231 breast carcinoma (CRL-12532, RRID:CVCL_0062), NCI-H1876 small cell lung carcinoma (CRL-5902, RRID:CVCL_1503), NCI-H510A small cell lung carcinoma (HTB-184, RRID:CVCL_1565), NCI-H1417 (CRL-5869, RRID:CVCL_1469), and NCI-H196 small cell lung carcinoma (CRL-5823, RRID:CVCL_1509). Dr. Peter Houghton (Greehey Children's Cancer Research Institute, University of Texas Health Science Center, San Antonio, TX) provided Rh-18 rhabdomyosarcoma (RRID:CVCL_1659). Pooled donor human umbilical vein endothelial cells (HUVEC, Lonza, cat. CC-2519) and human mesenchymal stem cells (hMSC, Lonza, cat. PT-2501) were purchased from Lonza (Walkersville, MD).
Cell Culture. […]

## O=C(c1ccc(F)c(F)c1Nc1ccc(I)cc1F)N1CC(O)([C@@H]2CCCCN2)C1 + CCN1C(C(=O)NC23CCC(C(=O)O)(CC2)CC3)C(c2cccc(Cl)c2F)C2(C(=O)Nc3cc(Cl)ccc32)C12CCCCC2
Curve of first compound, second compound 0.03 µM
  IC50: < 3.16 nM
Curve of first compound, second compound 0.0949 µM
  IC50: < 3.16 nM
Curve of first compound, second compound 0.3 µM
  IC50: < 3.16 nM
Curve of first compound, second compound 0.949 µM
  IC50: < 3.16 nM
Curve of first compound, second compound 3 µM
  IC50: < 3.16 nM
Second compound 0.03 µM, first compound 0.00316 µM
  viability, T/C: 35.4%
Second compound 0.03 µM, first compound 0.01 µM
  viability, T/C: 36.8%
Second compound 0.03 µM, first compound 0.0316 µM
  viability, T/C: 31.1%
Second compound 0.03 µM, first compound 0.1 µM
  viability, T/C: 33.5%
Second compound 0.03 µM, first compound 0.316 µM
  viability, T/C: 23.8%
Second compound 0.03 µM, first compound 1 µM
  viability, T/C: 6.29%
Second compound 0.0949 µM, first compound 0.00316 µM
  viability, T/C: 22.7%
Second compound 0.0949 µM, first compound 0.01 µM
  viability, T/C: 20.1%
Second compound 0.0949 µM, first compound 0.0316 µM
  viability, T/C: 20.1%
Second compound 0.0949 µM, first compound 0.1 µM
  viability, T/C: 13.9%
Second compound 0.0949 µM, first compound 0.316 µM
  viability, T/C: 7.94%
Second compound 0.0949 µM, first compound 1 µM
  viability, T/C: 1.48%
Second compound 0.3 µM, first compound 0.00316 µM
  viability, T/C: 13%
Second compound 0.3 µM, first compound 0.01 µM
  viability, T/C: 11.5%
Second compound 0.3 µM, first compound 0.0316 µM
  viability, T/C: 10.7%
Second compound 0.3 µM, first compound 0.1 µM
  viability, T/C: 8.42%
Second compound 0.3 µM, first compound 0.316 µM
  viability, T/C: 3.11%
Second compound 0.3 µM, first compound 1 µM
  viability, T/C: 1.29%
Second compound 0.949 µM, first compound 0.00316 µM
  viability, T/C: 9.01%
Second compound 0.949 µM, first compound 0.01 µM
  viability, T/C: 11.2%
Second compound 0.949 µM, first compound 0.0316 µM
  viability, T/C: 9.23%
Second compound 0.949 µM, first compound 0.1 µM
  viability, T/C: 5.03%
Second compound 0.949 µM, first compound 0.316 µM
  viability, T/C: 0.89%
Second compound 0.949 µM, first compound 1 µM
  viability, T/C: 0.92%
Second compound 3 µM, first compound 0.00316 µM
  viability, T/C: 8.3%
Second compound 3 µM, first compound 0.01 µM
  viability, T/C: 11.4%
Second compound 3 µM, first compound 0.0316 µM
  viability, T/C: 10.8%
Second compound 3 µM, first compound 0.1 µM
  viability, T/C: 2.33%
Second compound 3 µM, first compound 0.316 µM
  viability, T/C: 0.83%
Second compound 3 µM, first compound 1 µM
  viability, T/C: 1.01%

## COc1c(OCCCN2CCOCC2)ccc2c3n(c(=NC(=O)c4cnc(N)nc4)nc12)CCN3
Compound 0.00316 µM
  viability, T/C: 64.9% and 91.3% and 71.5%
Compound 0.01 µM
  viability, T/C: 50.6% and 55% and 53.8%
Compound 0.0316 µM
  viability, T/C: 15.9% and 20.9% and 23.7%
Compound 0.1 µM
  viability, T/C: 6.98% and 6.83% and 7.49%
Compound 0.316 µM
  viability, T/C: 3.1% and 3.42% and 2.99%
Compound 1 µM
  viability, T/C: 1.11% and 1.4% and 0.6%
Curve of compound
  IC50: 10.1 nM and 11.8 nM and 11.5 nM

## C#Cc1c(F)ccc2cc(O)cc(-c3ncc4c(N5CC6CCC(C5)N6)nc(OCC56CCCN5CC(F)C6)nc4c3F)c12 (centres undefined)
Compound 0.0316 µM
  viability, T/C: 79.3% and 89.2% and 129%
Compound 0.1 µM
  viability, T/C: 74.3% and 82.3% and 122%
Compound 0.316 µM
  viability, T/C: 71.5% and 63.9% and 81.2%
Compound 1 µM
  viability, T/C: 91.2% and 75.4% and 66.3%
Compound 3.16 µM
  viability, T/C: 87.4% and 64.3% and 106%
Compound 10 µM
  viability, T/C: 43.4% and 60.4% and 67.7%
Curve of compound
  IC50: 8120 nM and > 10000 nM

## CNC(C)C(=O)NC1CN(S(=O)(=O)c2cccc(S(=O)(=O)N3CCC4CCC(C(=O)NC(c5ccccc5)c5ccccc5)N4C(=O)C(NC(=O)C(C)NC)C3)c2)CCC2CCC(C(=O)NC(c3ccccc3)c3ccccc3)N2C1=O (centres undefined) + Cc1c(S(C)(=O)=O)c(-c2cc(F)cc(N3CCN(c4ccc(NS(=O)(=O)c5ccc(NC(CCN6CCC(C(=O)OCCCP(=O)(O)O)CC6)CSc6ccccc6)c(S(=O)(=O)C(F)(F)F)c5)cc4)CC3)c2)c(-c2ccc(Cl)cc2)n1C(C)C
Curve of first compound, second compound 0.1 µM
  IC50: < 3.16 nM
Curve of first compound, second compound 0.316 µM
  IC50: < 3.16 nM
Curve of first compound, second compound 1 µM
  IC50: < 3.16 nM
Curve of first compound, second compound 3.16 µM
  IC50: < 3.16 nM
Curve of first compound, second compound 10 µM
  IC50: < 3.16 nM
Second compound 0.1 µM, first compound 0.00316 µM
  viability, T/C: 11.9%
Second compound 0.1 µM, first compound 0.01 µM
  viability, T/C: 9.77%
Second compound 0.1 µM, first compound 0.0316 µM
  viability, T/C: 7.82%
Second compound 0.1 µM, first compound 0.1 µM
  viability, T/C: 7.58%
Second compound 0.1 µM, first compound 0.316 µM
  viability, T/C: 5.36%
Second compound 0.1 µM, first compound 1 µM
  viability, T/C: 6.51%
Second compound 0.316 µM, first compound 0.00316 µM
  viability, T/C: 8.42%
Second compound 0.316 µM, first compound 0.01 µM
  viability, T/C: 7.07%
Second compound 0.316 µM, first compound 0.0316 µM
  viability, T/C: 8.09%
Second compound 0.316 µM, first compound 0.1 µM
  viability, T/C: 5.52%
Second compound 0.316 µM, first compound 0.316 µM
  viability, T/C: 3.69%
Second compound 0.316 µM, first compound 1 µM
  viability, T/C: 5.21%
Second compound 1 µM, first compound 0.00316 µM
  viability, T/C: 7.09%
Second compound 1 µM, first compound 0.01 µM
  viability, T/C: 5.98%
Second compound 1 µM, first compound 0.0316 µM
  viability, T/C: 4.86%
Second compound 1 µM, first compound 0.1 µM
  viability, T/C: 4.96%
Second compound 1 µM, first compound 0.316 µM
  viability, T/C: 4.99%
Second compound 1 µM, first compound 1 µM
  viability, T/C: 4.12%
Second compound 3.16 µM, first compound 0.00316 µM
  viability, T/C: 4.15%
Second compound 3.16 µM, first compound 0.01 µM
  viability, T/C: 4.41%
Second compound 3.16 µM, first compound 0.0316 µM
  viability, T/C: 3.7%
Second compound 3.16 µM, first compound 0.1 µM
  viability, T/C: 4.89%
Second compound 3.16 µM, first compound 0.316 µM
  viability, T/C: 2.21%
Second compound 3.16 µM, first compound 1 µM
  viability, T/C: 3.61%
Second compound 10 µM, first compound 0.00316 µM
  viability, T/C: 5.31%
Second compound 10 µM, first compound 0.01 µM
  viability, T/C: 4.19%
Second compound 10 µM, first compound 0.0316 µM
  viability, T/C: 2.98%
Second compound 10 µM, first compound 0.1 µM
  viability, T/C: 3.4%
Second compound 10 µM, first compound 0.316 µM
  viability, T/C: 2.94%
Second compound 10 µM, first compound 1 µM
  viability, T/C: 2.34%
